Experimental data reported in US4188378A, “Anticancer and antiviral activity of 9-β-D-arabinofuranosyl-2-fluoroadenine” (The United States of America as represented by the …, priority 1978, dated 1980).
Entries after “also recorded” stand apart in the source; their conditions may differ. Where two headings read alike, the source gives them in different places.

Assays:
[1] = test system: adenosine deaminase; assay: Deamination by adenosine deaminase in vitro and in vivo; format: in vitro ADME
Description: (§1) Inhibition of DNA polymerase is considered to be responsible for the biologic activity of AraA. The levels of F-AraATP attainable in leukemia L1210 cells in mice from the administration of 2-F-AraA are much higher than the level of AraATP atainable in these cells after administration of AraA. As a result of the maintenance of these levels of the inhibitor, F-AraATP, in them, the leukemia cells are effectively destroyed in animals. […] 2-F-AraA was also active against leukemia L1210 when administered by the oral route.
(§2) It has been noted that the antitumor activity of the parent compound, 9-β-D-arabinofuranosyladenine (AraA), is enhanced by inhibition of adenosine deaminase and inhibition of DNA synthesis in tumor cells by AraA also is enhanced by concurrent inhibition of adenosine deaminase. […] This observation that 2-fluoroadenosine is not such a substrate for adenosine deaminase led to the synthesis of 9-β-D-arabinofuranosyl-2-fluoroadenine (2-F-AraA). […] The intracellular concentration of 2-F-AraATP in L1210 cells was 45, 156 and 220 nanomoles per 10^9 cells three hours after intraperitoneal treatment with 80, 150 and 400 mg/kg of 2-F-AraA.

[2] = test system: Leukemia L1210; assay: Therapeutic activity against leukemia L1210 implanted i.p. in mice; format: in vivo
Description: as §1
^a 10^5 L1210 ascites cells implanted i.p. on day 0.
^b Treatments reported were selected from a range of dose levels from
lethally toxic to apparently nontoxic.
more than 16% (1/6 treated mice) dying without gross evidence of
progressive leukemia (splenomegaly), except those treated orally, in whic
^c i.p. = intraperitoneal; oral = drug administered directly into
^d % ILS = % increase in life span, compared to untreated control;
excluding 60day survivors.
^e Based on median day of death in dying animals only. Figures in
parentheses based on % survivors.
2-F-AraA was given i.p. or orally on the basis of average mouse body weight. Therapeutic activity based on observed increase in median life span of treated animals over untreated controls and on estimates of the number of viable L1210 cells present at the end of treatment is summarized in Table 2.

[3] = test system: P388 leukemia; assay: Therapeutic activity against P388 leukemia in mice; format: in vivo; conditions: for % increase in median life span: days 1,5,9 after implant of 10^6 cells
Method: (§3) Relative to activity against leukemia and antiviral activity, the following summation was found: Levels of F-AraATP in acid-soluble extracts prepared from L1210 and P388 leukemia cells in mice treated with 2-F-AraA (80 mg/kg) were determined by HPLC. […] Inhibition of DNA synthesis by 2-F-AraA (80 mg/kg) in L1210 and P388 leukemia cells in vivo was pronounced for 7 hours after treatment. […] 2-F-AraA was effective against P388 leukemia; % increase in median life span of mice treated with 80 and 52 mg/kg (q3hrsx8; days 1,5,9 after implant of 10^6 cells) was 170% and 150%.

[4] = test system: L1210 cells; assay: Intracellular 2-F-AraATP levels in L1210 cells of treated mice; format: in vivo; conditions: for level of F-AraATP in acid-soluble extracts (HPLC): L1210 cells, 80 mg/kg
Description: as §2, §3

[5] = test system: P388 leukemia cells; assay: F-AraATP levels in P388 leukemia cells of treated mice (HPLC); format: in vivo; conditions: 80 mg/kg
Method: as §3

[6] = test system: L1210 cells; assay: Macromolecular synthesis in L1210 cells in culture (radiolabel incorporation); format: cell-based; conditions: for activity at 1 µg/mL / activity at 3 µg/mL / activity at 10 µg/mL / inhibition at 10 µg/mL: Mus musculus, L1210; for activity at 1 µg/mL: 1.0 μg/ml; for activity at 3 µg/mL: 3.0 μg/ml; for activity at 10 µg/mL: 10.0 μg/ml
Method: ^a Inhibitor was added to L1210 cells growing in culture; radioactive
substrate was added 30 min. later.
hrs after addition of radioactive substrate to culture medium.
^b Incorporation of [C^3 H3 thymidine or [5^3 Huridine
^c Incorporation of [5^3 Huridine into RNA.
^d Incorporation of [4,5^3 HL-leucine into protein.

[7] = test system: P388 leukemia cells; assay: DNA synthesis in P388 leukemia cells in vivo; parameters: species or system mice; conditions: 80 mg/kg, for 7 hours after treatment
Method: as §3

[8] = test system: Vaccinia Virus; format: cell-based
[9] = test system: Human Cytomegalovirus; assay: In vitro antiviral activity, Virus Rating; format: cell-based; conditions: average VR adjusted for number of Microtiter wells; VR ≤0.5 no significant activity
Description: (§4) *Virus Rating (VR): A weighted measurement of antiviral activity which
(§5) takes into account the degree of virusspecific cytopathogenic effect
(§6) (cpe)inhibition, toxicity, and virus concentration, as determined by a
(§7) modification of the methods of Ehrlich et al. (Ann. N.Y. Acad. Sci. 140:7
(§8) 1965). In our experience, a VR≥1.0 indicates definite antiviral
(§9) activity; a VR of 0.5-0.9 indicates moderate antiviral activity; and a VR
(§10) ≤0.5 indicates no significant antiviral activity.
(§11) ^+ Average VR adjusted for number of Microtiter wells employed.

[10] = test system: Parainfluenza Virus Type 3; assay: In vitro antiviral activity, Virus Rating; format: cell-based; conditions: average VR adjusted for number of Microtiter wells; VR ≤0.5 no significant activity
Description: as §4, §5, §6, §7, §8, §9, §10, §11

[11] = test system: Rhinovirus Type 1A; assay: In vitro antiviral activity, Virus Rating; format: cell-based; conditions: average VR adjusted for number of Microtiter wells; VR ≤0.5 no significant activity
Description: as §4, §5, §6, §7, §8, §9, §10, §11

[12] = Expt. 1, 100 mg/kg/dose q3h × 8, days 1,5,9, i.p.
[13] = Expt. 2, 100 mg/kg/dose q6h × 4, days 1,5,9, i.p.
[14] = Expt. 2, 150 mg/kg/dose q3h × 8, days 1,5,9, oral
[15] = Expt. 2, 400 mg/kg/dose q12h × 2, days 1,5,9, i.p.
[16] = second line of the same regimen: 100 mg/kg/dose q3h × 8, days 1,5,9, i.p.
[17] = read-out: DNA synthesis, TdR-3H incorporation, Treated as % of Control
[18] = read-out: DNA synthesis, UR-3H incorporation, Treated as % of Control
[19] = read-out: Protein synthesis, Leu-3H incorporation, Treated as % of Control
[20] = read-out: RNA synthesis, UR-3H incorporation, Treated as % of Control
[21] = same experimental conditions as Table 1

## Nc1nc(F)nc2c1ncn2[C@@H]1O[C@H](CO)[C@@H](O)[C@@H]1O [2-F-AraA, 9-β-D-arabinofuranosyl-2-fluoroadenine]
[1]
  deamination by adenosine deaminase: not a substrate for adenosine deaminase; also recorded: not deaminated; also recorded: completely resistant to deamination
[2]; 100 mg/kg i.p. once every three hours on days 1, 5, 9, 10^5 cells, 4 of 6 animals
  increase in life span of animals dying of leukemia: 123-155%
[2]; 100 mg/kg i.p. once every three hours on days 1, 5, 9, of 6 animals
  animals deemed recovered from the disease: two
[2]; 400 mg/kg twice a day on days 1, 5, 9
  therapeutic result compared with the 100 mg/kg q3h regimen: Comparable results
[2]; 2-F-AraA alone, BDFl mice, 10^5 cells i.p.
  therapeutic activity against L1210 leukemia: reproducible therapeutic activity; also recorded: therapeutically effective
[2]; [12]
  60-Day Survivors: 2/6
  Estimated No. L1210 Cells Surviving Therapy (based on median day of death): 4 × 10^4
  Estimated No. L1210 Cells Surviving Therapy (in parentheses, based on % survivors): 1.1
  Median % ILS: 123%
[2]; Expt. 1, 100 mg/kg/dose q3h × 8, days 1,5,9, i.p., control 8.5
  Median Day of Death (Dying Mice Only), Treated: 19
[2]; [13]
  60-Day Survivors: 0/6
  Estimated No. L1210 Cells Surviving Therapy (based on median day of death): 3 × 10^6
  Median % ILS: 83%
[2]; Expt. 2, 100 mg/kg/dose q6h × 4, days 1,5,9, i.p., control 9
  Median Day of Death (Dying Mice Only), Treated: 16.5
[2]; [14]
  Estimated No. L1210 Cells Surviving Therapy (based on median day of death): 2 × 10^7
  Median % ILS: 66%
[2]; Expt. 2, 150 mg/kg/dose q3h × 8, days 1,5,9, oral, control 9
  Median Day of Death (Dying Mice Only), Treated: 15
[2]; [15]
  60-Day Survivors: 1/6
  Estimated No. L1210 Cells Surviving Therapy (based on median day of death): 2 × 10^3
  Estimated No. L1210 Cells Surviving Therapy (in parentheses, based on % survivors): 1.8
  Median % ILS: 144%
[2]; Expt. 2, 400 mg/kg/dose q12h × 2, days 1,5,9, i.p., control 9
  Median Day of Death (Dying Mice Only), Treated: 22
[2]; i.p. treatments reported in Table 2 (1/6 treated mice)
  treated mice dying without gross evidence of progressive leukemia (splenomegaly): ≤ 16%
[2]; mice treated orally
  toxicity over the dose range tested: no toxic levels
[2]; oral route
  activity against leukemia L1210: some therapeutic activity; also recorded: active
[2]; [16]
  60-Day Survivors: 1/6
  Estimated No. L1210 Cells Surviving Therapy (based on median day of death): 5 × 10^2
  Estimated No. L1210 Cells Surviving Therapy (in parentheses, based on % survivors): 1.8
  Median % ILS: 155%
[2]; second line of the same regimen: 100 mg/kg/dose q3h × 8, days 1,5,9, i.p., control 9
  Median Day of Death (Dying Mice Only), Treated: 23
[3]; 52 mg/kg q3hrsx8
  % increase in median life span: 150%
[3]; 80 mg/kg q3hrsx8
  % increase in median life span: 170%
[3]; mouse, in vivo
  activity against P388 leukemia in mice: effective; also recorded: active
[4]; 9 and 18 hours after a single dose of 80 and 150 mg/kg
  2-F-AraATP in L1210 cells: not found
[4]; 18 hours after a dose of 400 mg/kg
  2-F-AraATP in L1210 cells: significant levels were present
[4]; BDFl mice treated with 2-F-AraA alone, versus AraATP from AraA plus adenosine deaminase inhibitor
  intracellular pools of 2-F-AraATP in L1210 cells: comparable
[4]; 1 to 6 hours after treatment
  level of F-AraATP in acid-soluble extracts (HPLC): 30-50 nmoles/gm cells
[4]; 9 hours after treatment
  level of F-AraATP in acid-soluble extracts (HPLC): none was detected
[4]; after administration of 2-F-AraA
  levels of F-AraATP attainable in leukemia L1210 cells in mice, compared with AraATP after AraA: much higher
[5]; 1 to 6 hours after treatment
  level of F-AraATP in acid-soluble extracts (HPLC): 30-50 nmoles/gm cells
[5]; 9 hours after treatment
  level of F-AraATP in acid-soluble extracts (HPLC): none was detected
[6]
  DNA synthesis in L1210 cells in culture: inhibited DNA synthesis
[6]; 10 μg/ml
  inhibition of RNA synthesis: generally not inhibited
[6]; [17]
  activity at 1 µg/mL: 102%
  activity at 3 µg/mL: 49%
  activity at 10 µg/mL: 18%
[6]; [18]
  activity at 1 µg/mL: 84%
  activity at 3 µg/mL: 36%
  activity at 10 µg/mL: 11%
[6]; [19]
  activity at 1 µg/mL: 119%
  activity at 3 µg/mL: 86%
  activity at 10 µg/mL: 66%
[6]; [20]
  activity at 1 µg/mL: 135%
  activity at 3 µg/mL: 163%
  activity at 10 µg/mL: 137%
[6]; 10 μg/ml, read-out: inhibition of DNA synthesis
  inhibition at 10 µg/mL: 90%
[6]; 10 μg/ml, read-out: inhibition of protein synthesis
  inhibition at 10 µg/mL: 30%
[6]; [21]
  Protein synthesis in L1210 cells in culture: less affected
  RNA synthesis in L1210 cells in culture: not inhibited
[7]
  inhibition of DNA synthesis in vivo: pronounced
[8]; average VR adjusted for number of Microtiter wells, VR≥1.0 definite activity
  Virus Rating (VR): 1.3
[8]; grown in H.Ep.-2 cells in culture
  activity against the virus: demonstrated activity
[9]
  Virus Rating (VR): 0.3
[10]
  Virus Rating (VR): 0
[11]
  Virus Rating (VR): 0
